Results reported in US10231956B2, “3-(1H-pyrrolo[3,2-C]pyridin-2-YL)-1 H-pyrazolo[4,3-B]pyridines and therapeutic uses thereof” (Samumed, LLC, priority 2015, dated 2019).

Columns and labels:
[1] = system: primary human fibroblasts derived from IPF patients (LL29 cells); test: Inhibition of fibrotic process: αSMA staining in TGF-β1 treated LL29 fibroblasts; format: cell-based; conditions: Fibroblast; for EC50: 96 h, TGF-β1 20 ng/mL, 4 days, % cells positive for αSMA
Description: Representative compounds were screened using primary human fibroblasts (derived from IPF patients) treated with TGF-β1 to determine their ability to inhibit the fibrotic process.
Human Fibroblast Cell Culture: Primary human fibroblasts derived from IPF patients (LL29 cells) [^1Xiaoqiu Liu, et. al., “Fibrotic Lung Fibroblasts Show Blunted Inhibition by cAMP Due to Deficient cAMP Response Element-Binding Protein Phosphorylation”, Journal of Pharmacology and Experimental Therapeutics (2005), 315(2), 678-687; ^2Watts, K. L., et. al., “RhoA signaling modulates cyclin D1 expression in human lung fibroblasts; implications for idiopathic pulmonary fibrosis”, Respiratory Research (2006), 7(1), 88] were obtained from American Type Culture Collection (ATCC) and expanded in F12 medium supplemented with 15% Fetal Bovine Serum and Penicillin/Streptomycin.
Compound Screening: Each compound was dissolved in DMSO as a 10 mM stock and used to prepare compound source plates. Serial dilution (1:2, 11-point dose-response curves from […]) and compound transfer was performed using the ECHO 550 (Labcyte, Sunnyvale, Calif.) into 384-well clear bottom assay plates (Greiner Bio-One) with appropriate DMSO backfill for a final DMSO concentration of 0.1%. LL29 cells are plated at 1,500 cells/well in 80 μL/well F12 medium supplemented with 1% Fetal Bovine Serum. One hour after addition of the cells, TGF-β1 (Peprotech; 20 ng/mL) was added to the plates to induce fibrosis (ref. 1 and 2 above). Wells treated with TGF-β1 and containing DMSO were used as controls. Cells were incubated at 37° C. and 5% CO2 for 4 days. Following incubation for 4 days, SYTOX green nucleic acid stain (Life Technologies [Thermo Fisher Scientific]) was added to the wells at a final concentration of 1 μM and incubated at room temperature for 30 min. Cells were then fixed using 4% formaldehyde (Electron Microscopy Sciences), washed 3 times with PBS followed by blocking and permeabilization using 3% Bovine Serum Albumin (BSA; Sigma) and 0.3% Triton X-100 (Sigma) in PBS. Cells were then stained with antibody specific to α-smooth muscle actin (αSMA; Abcam) (ref. 1 and 2 above) in 3% Bovine Serum Albumin (BSA; Sigma) and 0.3% Triton X-100 (Sigma) in PBS, and incubated overnight at 4° C. Cells were then washed 3 times with PBS, followed by incubation with Alexa Flor-647 conjugated secondary antibody (Life Technologies [Thermo Fisher Scientific]) and DAPI at room temperature for 1 hour. Cells were then washed 3 times with PBS and plates were sealed for imaging. αSMA staining was imaged by excitation at 630 nm and emission at 665 nm and quantified using the Compartmental Analysis program on the CellInsight CX5 (Thermo Scientific). Dead or apoptotic cells were excluded from analysis based on positive SYTOX green staining. % of total cells positive for αSMA were counted in each well and normalized to the average of 11 wells treated with TGF-β1 on the same plate using Dotmatics' Studies Software. The normalized averages (fold change over untreated) of 3 replicate wells for each compound concentration were used to create dose-responses curves and EC50 values were calculated using non-linear regression curve fit in the Dotmatics' Studies Software. For EC50 of >10 μM, the percent inhibition at 10 μM is provided.

[2] = system: Wnt activity (Sp5-Luc reporter, SW480 colon carcinoma cells); test: Sp5-Luc reporter gene screening assay for Wnt activity in SW480 cells; format: cell-based; conditions: Homo sapiens; for EC50: luminescence, overnight incubation
Description: The screening assay for Wnt activity is described as follows. Reporter cell lines can be generated by stably transducing cancer cell lines (e.g., colon cancer) or primary cells (e.g., IEC-6 intestinal cells) with a lentiviral construct that includes a Wnt-responsive promoter driving expression of the firefly luciferase gene.
SW480 colon carcinoma cells were transduced with a lentiviral vector expressing luciferase with a human Sp5 promoter consisting of a sequence of eight TCF/LEF binding sites. SW480 cells stably expressing the Sp5-Luc reporter gene and a hygromycin resistance gene were selected by treatment with 150 μg/mL of hygromycin for 7 days. These stably transduced SW480 cells were expanded in cell culture and used for all further screening activities. Each compound was dissolved in DMSO as a 10 mM stock and used to prepare compound source plates. Serial dilution (1:3, 10-point dose-response curves starting from 10 μM) and compound transfer was performed using the ECHO 550 (Labcyte, Sunnyvale, Calif.) into 384-well white solid bottom assay plates (Greiner Bio-One) with appropriate DMSO backfill for a final DMSO concentration of 0.1%. For Sp5-Luc reporter gene assays, the cells were plated at 4,000 cells/well in 384-well plates with medium containing 1% fetal bovine serum and incubated overnight at 37° C. and 5% CO2. Following incubation, 20 μl of BrightGlo luminescence reagent (Promega) was added to each well of the 384-well assay plates. The plates were placed on an orbital shaker for 2 min and then luminescence was quantified using the Envision (Perkin Elmer) plate reader. Readings were normalized to DMSO only treated cells, and normalized activities were utilized for EC50 calculations using the dose-response log (inhibitor) vs. response-variable slope (four parameters) nonlinear regression feature available in GraphPad Prism 5.0 (or Dotmatics). For EC50 of >10 μM, the percent inhibition at 10 μM is provided.

Row | Structure (SMILES) | EC50 [2] [nM] | EC50 [1] [nM] | inhibition at 10 µM ([1]; given for EC50 >10 μM, TGF-β1, αSMA, 10 μM, read-out: percent inhibition at 10 μM) [%] | inhibition at 10 µM ([2]; given for EC50 >10 μM, 10 μM, read-out: percent inhibition at 10 μM) [%]
1 | Fc1cccc(-c2nccc3[nH]c(-c4n[nH]c5ccc(-c6cccnc6)nc45)cc23)c1 [Compound 4, 3-(4-(3-Fluorophenyl)-1H-pyrrolo[3,2-c]pyridin-2-yl)-5-(pyridin-3-yl)-1H-pyrazolo[4,3-b]pyridine] | 1490 | 427 |  | 
2 | Fc1cccc(-c2nccc3[nH]c(-c4n[nH]c5ccc(-c6cncc(CN7CCCCC7)c6)nc45)cc23)c1 [Compound 15, 3-(4-(3-Fluorophenyl)-1H-pyrrolo[3,2-c]pyridin-2-yl)-5-(5-(piperidin-1-ylmethyl)pyridin-3-yl)-1H-pyrazolo[4,3-b]pyridine] | 3750 | 554 |  | 
3 | O=C(Nc1cncc(-c2ccc3[nH]nc(-c4cc5c(-c6cccc(F)c6)nccc5[nH]4)c3n2)c1)C1CCCCC1 [Compound 23, N-(5-(3-(4-(3-Fluorophenyl)-1H-pyrrolo[3,2-c]pyridin-2-yl)-1H-pyrazolo [4,3-b]pyridin-5-yl)pyridin-3-yl)cyclohexanecarboxamide] | 1280 | 463 |  | 
4 | Cc1ccncc1-c1ccc2[nH]nc(-c3cc4c(-c5ccc(F)cc5)nccc4[nH]3)c2n1 [Compound 33, 3-(4-(4-Fluorophenyl)-1H-pyrrolo[3,2-c]pyridin-2-yl)-5-(4-methylpyridin-3-yl)-1H-pyrazolo[4,3-b]pyridine] | > 10000 | 3300 |  | 37.3
5 | Fc1ccccc1-c1nccc2[nH]c(-c3n[nH]c4ccc(-c5cncc(CNCc6ccccc6)c5)nc34)cc12 [Compound 80, N-Benzyl-1-(5-(3-(4-(2-fluorophenyl)-1H-pyrrolo[3,2-c]pyridin-2-yl)-1H-pyrazolo[4,3-b]pyridin-5-yl)pyridin-3-yl)methanamine] | 3790 | 1670 |  | 

Stronger by EC50 [2], values ahead:

Row | EC50 [2] [nM] | Structure (SMILES) | EC50 [1] [nM] | inhibition at 10 µM ([1]; given for EC50 >10 μM, TGF-β1, αSMA, 10 μM, read-out: percent inhibition at 10 μM) [%] | inhibition at 10 µM ([2]; given for EC50 >10 μM, 10 μM, read-out: percent inhibition at 10 μM) [%]
6 | 746 | CN(C)c1cncc(-c2ccc3[nH]nc(-c4cc5c(-c6cccc(F)c6)nccc5[nH]4)c3n2)c1 [Compound 7, 5-(3-(4-(3-Fluorophenyl)-1H-pyrrolo[3,2-c]pyridin-2-yl)-1H-pyrazolo[4,3-b]pyridin-5-yl)-N,N-dimethylpyridin-3-amine] | > 10000 | 0 | 
7 | 692 | O=C(Nc1cncc(-c2ccc3[nH]nc(-c4cc5c(-c6ccc(F)cc6)nccc5[nH]4)c3n2)c1)c1ccccc1 [Compound 39, N-(5-(3-(4-(4-Fluorophenyl)-1H-pyrrolo[3,2-c]pyridin-2-yl)-1H-pyrazolo [4,3-b]pyridin-5-yl)pyridin-3-yl)benzamide] | 302 |  | 
8 | 599 | Fc1ccc(-c2nccc3[nH]c(-c4n[nH]c5ccc(-c6cncc(CN7CCC(F)(F)C7)c6)nc45)cc23)cc1 [Compound 54, 5-(5-((3,3-Difluoropyrrolidin-1-yl)methyl)pyridin-3-yl)-3-(4-(4-fluorophenyl)-1H-pyrrolo[3,2-c]pyridin-2-yl)-1H-pyrazolo[4,3-b]pyridine] | 521 |  | 
9 | 649 | CC(C)CC(=O)Nc1cncc(-c2ccc3[nH]nc(-c4cc5c(-c6ccccc6F)nccc5[nH]4)c3n2)c1 [Compound 58, N-(5-(3-(4-(2-Fluorophenyl)-1H-pyrrolo[3,2-c]pyridin-2-yl)-1H-pyrazolo [4,3-b]pyridin-5-yl)pyridin-3-yl)-3-methylbutanamide] | 370 |  | 
10 | 1210 | CN(C)Cc1cncc(-c2ccc3[nH]nc(-c4cc5c(-c6ccccc6F)nccc5[nH]4)c3n2)c1 [Compound 69, 1-(5-(3-(4-(2-Fluorophenyl)-1H-pyrrolo[3,2-c]pyridin-2-yl)-1H-pyrazolo [4,3-b]pyridin-5-yl)pyridin-3-yl)-N,N-dimethylmethanamine] | 626 |  | 
11 | 687 | O=C(Nc1cncc(-c2ccc3[nH]nc(-c4cc5c(-c6ccccc6F)nccc5[nH]4)c3n2)c1)C1CC1 [Compound 76, N-(5-(3-(4-(2-Fluorophenyl)-1H-pyrrolo[3,2-c]pyridin-2-yl)-1H-pyrazolo [4,3-b]pyridin-5-yl)pyridin-3-yl)cyclopropanecarboxamide] | 3520 |  | 
